# From patent US11555012B2 (Nimbus Artemis, Inc., priority 2018, dated 2023)
# Target: ACL (Homo sapiens (Human), UniProt P53396)
# Assay: ADP-Glo Assay
# ACL, sequence (P53396 other isoform, or with tags, fused parts or gaps isoform P53396-2): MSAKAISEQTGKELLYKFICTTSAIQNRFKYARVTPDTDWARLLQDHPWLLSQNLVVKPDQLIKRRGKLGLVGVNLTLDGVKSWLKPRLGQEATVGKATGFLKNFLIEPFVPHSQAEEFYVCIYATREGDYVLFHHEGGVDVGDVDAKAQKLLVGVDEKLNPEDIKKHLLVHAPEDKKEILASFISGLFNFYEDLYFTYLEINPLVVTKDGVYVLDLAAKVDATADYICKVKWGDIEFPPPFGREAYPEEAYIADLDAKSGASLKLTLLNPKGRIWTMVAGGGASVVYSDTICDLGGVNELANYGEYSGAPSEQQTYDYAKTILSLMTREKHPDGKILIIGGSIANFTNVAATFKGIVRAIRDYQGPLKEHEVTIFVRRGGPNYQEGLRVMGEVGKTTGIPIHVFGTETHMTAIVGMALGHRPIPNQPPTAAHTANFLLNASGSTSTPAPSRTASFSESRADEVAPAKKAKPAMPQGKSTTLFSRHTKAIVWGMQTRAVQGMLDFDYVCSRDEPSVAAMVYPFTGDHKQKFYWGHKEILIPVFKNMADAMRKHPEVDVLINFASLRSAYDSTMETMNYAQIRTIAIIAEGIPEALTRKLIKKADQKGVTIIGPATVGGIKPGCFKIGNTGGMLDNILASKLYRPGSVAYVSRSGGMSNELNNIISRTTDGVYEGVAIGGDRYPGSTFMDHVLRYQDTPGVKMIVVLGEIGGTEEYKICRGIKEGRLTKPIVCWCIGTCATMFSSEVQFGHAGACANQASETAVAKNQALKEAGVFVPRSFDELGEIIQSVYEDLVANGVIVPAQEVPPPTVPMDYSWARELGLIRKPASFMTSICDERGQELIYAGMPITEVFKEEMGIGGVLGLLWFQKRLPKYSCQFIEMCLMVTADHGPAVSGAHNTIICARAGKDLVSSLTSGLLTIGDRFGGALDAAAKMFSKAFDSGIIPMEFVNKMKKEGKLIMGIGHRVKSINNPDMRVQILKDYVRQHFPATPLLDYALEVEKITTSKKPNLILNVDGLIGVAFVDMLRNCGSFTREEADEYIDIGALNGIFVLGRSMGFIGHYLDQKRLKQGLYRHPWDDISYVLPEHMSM
row,SMILES,IC50
1,"O=S(=O)(Nc1cc(-c2ccccc2)c(F)cc1F)c1cccc2ccccc12 [I-376, N-(4,6-difluoro-[1,1 biphenyl]-3-yl)naphthalene-1-sulfonamide]",> 20 µM
2,"O=S(=O)(Nc1cc(-c2ccccc2)ccc1F)c1cccc2cc[nH]c12 [I-377, N-[4-fluoro-[1,1-biphenyl]-3-yl]-1H-indole-7-sulfonamide]",> 20 µM
3,"COc1c(Cl)cc(C(=O)N2CCC2)cc1S(=O)(=O)Nc1cc(-c2ccccc2)c(F)cc1F [I-378, 5-(azetidine-1-carbonyl)-3-chloro-N-[4,6-difluoro-[1,1-biphenyl]-3-yl]-2-methoxybenzene-1-sulfonamide]",> 20 µM
4,"COc1ccc(Br)cc1S(=O)(=O)Nc1cc(-c2ccccc2)c(F)cc1F [I-380, 5-bromo-N-[4,6-difluoro-[1,1-bipheny1]-3-yl]-2-methoxybenzene-1-sulfonamide]",> 20 µM
5,"N#Cc1cc(S(=O)(=O)Nc2cc(-c3ccccc3)c(F)cc2F)ccc1F [I-381, 3-cyano-N-(4,6-difluoro-[1,1′-biphenyl]-3-yl)-4-fluorobenzenesulfonamide]",> 20 µM
6,"CC(C)(C)OC(=O)n1ccc2cccc(S(=O)(=O)Nc3cc(-c4ccccc4)ccc3F)c21 [I-382, tert-butyl 7-(N-(4-fluoro-[1,1′-biphenyl]-3-yl)sulfamoyl)-1H-indole-1-carboxylate]",> 20 µM
7,"O=S(=O)(Nc1cc(-c2ccccc2)c(F)cc1F)c1cccc2c1OCCO2 [I-383, N-[4,6-difluoro-[1,1-biphenyl]-3-yl]-2,3-dihydro-1,4-benzodioxine-5-sulfonamide]",> 20 µM
8,"COc1ccc(C(=O)N2CCC2)cc1S(=O)(=O)Nc1cc(-c2ccccc2)c(F)cc1F [I-384, 5-(azetidine-1-carbonyl)-N-[4,6-difluoro-[1,1-biphenyl]-3-yl]-2-methoxybenzene-1-sulfonamide]",> 20 µM
9,"CS(=O)(=O)c1ccccc1S(=O)(=O)Nc1cc(-c2ccccc2)c(F)cc1F [I-385, N-[4,6-difluoro-[1,1-biphenyl]-3-yl]-2-methanesulfonylbenzene-1-sulfonamide]",> 20 µM
10,"O=C(c1cc(Cl)cc(S(=O)(=O)Nc2cc(-c3ccccc3)c(F)cc2F)c1)N1CCC1 [I-386, 3-(azetidine-1-carbonyl)-5-chloro-N-(4,6-difluoro-[1,1′-biphenyl]-3-yl)benzenesulfonamide]",> 20 µM
11,"CC(C)(C)OC(=O)COc1c(Cl)cc(C(=O)N2CCC2)cc1S(=O)(=O)Nc1cc(-c2ccccc2)c(F)cc1F [I-387, tert-butyl 2-[4-(azetidine-1-carbonyl)-2-chloro-6-([4,6-difluoro-[1,1-biphenyl]-3-yl]sulfamoyl)phenoxy]acetate]",> 20 µM
12,"CO[C@@H]1CCN(C(=O)c2cc(Cl)cc(S(=O)(=O)Nc3cc(-c4ccccc4)c(F)cc3F)c2)C1 [I-388, (R)-3-chloro-N-(4,6-difluoro-[1,1′-biphenyl]-3-yl)-5-(3-methoxypyrrolidine-1-carbonyl)benzenesulfonamide]",> 20 µM
13,"CO[C@H]1CCN(C(=O)c2cc(Cl)cc(S(=O)(=O)Nc3cc(-c4ccccc4)c(F)cc3F)c2)C1 [I-389, (S)-3-chloro-N-(4,6-difluoro-[1,1′-biphenyl]-3-yl)-5-(3-methoxypyrrolidine-1-carbonyl)benzenesulfonamide]",> 20 µM
14,"O=S(=O)(Nc1cc(-c2ccccc2)c(F)cc1F)c1cccc2nsnc12 [I-390, N-(4,6-difluoro-[1,1 biphenyl]-3-yl)benzo[c][1,2,5]thiadiazole-4-sulfonamide]",> 20 µM
15,"CS(=O)(=O)c1cc(Cl)cc(S(=O)(=O)Nc2cc(-c3ccccc3)c(F)cc2F)c1 [I-392, 3-chloro-N-(4,6-difluoro-[1,1′-biphenyl]-3-yl)-5-(methylsulfonyl)benzenesulfonamide]",> 20 µM
16,"O=S(=O)(Nc1ccc(-c2ccccc2)cc1F)c1cccc2ncoc12 [I-393, N-(3-fluoro-[1,1′-biphenyl]-4-yl)benzo[d] oxazole-7-sulfonamide]",> 20 µM
17,"O=S(=O)(Nc1cc(N2CCNCC2)c(F)cc1F)c1cc(Cl)cc(Cl)c1O [I-395, 3,5-dichloro-N-(2,4-difluoro-5-(piperazin-1-yl)phenyl)-2-hydroxybenzenesulfonamide]",> 20 µM
18,"COc1ccc(-c2ccccc2)cc1NS(=O)(=O)c1cc(Cl)cc(Cl)c1C(=O)O [I-398, 2,4-dichloro-6-(N-(4-methoxy-[1,1′-biphenyl]-3-yl)sulfamoyl) Benzoic Acid]",> 20 µM
19,"O=C(O)CCc1cc(Cl)c(O)c(S(=O)(=O)Nc2cc(F)cc(F)c2)c1 [I-399, 3-(3-chloro-5-(N-(3,5-difluorophenyl)sulfamoyl)-4-hydroxyphenyl) Propanoic Acid]",> 20 µM
20,"COc1cc(-c2ccccc2)ccc1NS(=O)(=O)c1cc(Cl)cc(Cl)c1C [I-403, 3,5-dichloro-N-(3-methoxy-[1,1′-biphenyl]-4-yl)-2-methylbenzenesulfonamide]",> 20 µM
21,"COc1ccc(C(=O)O)cc1NS(=O)(=O)c1cc(Cl)cc(Cl)c1O [I-404, 3-((3,5-dichloro-2-hydroxyphenyl)sulfonamido)-4-methoxybenzoic acid]",> 20 µM
22,"COc1ccc(C(=O)OC2CC2)cc1NS(=O)(=O)c1cc(Cl)cc(Cl)c1O [I-411, cyclopropyl 3-((3,5-dichloro-2-hydroxyphenyl)sulfonamido)-4-methoxybenzoate]",> 20 µM
23,"O=C(O)c1ccc(NS(=O)(=O)c2cc(Cl)cc(Cl)c2O)cc1Cl [I-412, 2-chloro-4-[(3,5-dichloro-2-hydroxybenzene)sulfonamido]benzoic acid]",> 20 µM
24,"COc1c(Cl)cc(Cl)cc1S(=O)(=O)Nc1cc(C(=O)O)ccc1F [I-413, 3-[(3,5-dichloro-2-methoxybenzene)sulfonamido]-4-fluorobenzoic Acid]",> 20 µM
25,"Cn1cc(Cl)cc(S(=O)(=O)Nc2cc(-c3ccccc3)ccc2F)c1=O [I-415, 5-chloro-N-(2-fluoro-5-phenylphenyl)-1-methyl-2-oxo-1,2-dihydropyridine-3-sulfonamide]",> 20 µM
26,"N#Cc1ccc(F)c(S(=O)(=O)Nc2cc(-c3ccccc3)ccc2F)c1 [I-418, 5-cyano-2-fluoro-N-(2-fluoro-5-phenylphenyl) benzene-1-sulfonamide]",> 20 µM

# More lines, now with the values ahead:
row,IC50,SMILES
1,> 20 µM,"O=C(O)COc1ccccc1S(=O)(=O)Nc1cc(-c2ccccc2)ccc1F [I-379, 2-(2-(N-(4-fluoro-[1,1′-biphenyl]-3-yl)sulfamoyl)phenoxy)acetic Acid]"
2,> 20 µM,"COc1ccc(-c2ccccc2)cc1N(Cc1cc(Cl)cc(Cl)c1O)S(C)(=O)=O [I-391, N-(3,5-dichloro-2-hydroxybenzyl)-N-(4-methoxy-[1,1′-biphenyl]-3-yl)methanesulfonamide]"
3,> 20 µM,"COc1ccc(-c2ccccc2)cc1NS(=O)(=O)c1cc(Cl)cc(Cl)c1F [I-394, 3,5-dichloro-2-fluoro-N-[4-methoxy-[1,1-biphenyl]-3-yl]benzene-1-sulfonamide]"
4,> 20 µM,"COc1ccc(-c2ccccc2)cc1NS(=O)(=O)c1cccc(C#N)c1 [I-396, 3-cyano-N-(2-methoxy-5-phenylphenyl) benzene-1-sulfonamide]"
5,> 20 µM,"COc1ccc(-c2ccccc2)cc1N(Cc1ccccc1)S(=O)(=O)c1c(C)c(Cl)cc(Cl)c1OCc1ccccc1 [I-397, N-benzyl-2-(benzyloxy)-3,5-dichloro-N-(4-methoxy-[1,1′-biphenyl]-3-yl)-6-methylbenzenesulfonamide]"
6,> 20 µM,"COc1ccc(-c2ccccc2)cc1NS(=O)(=O)c1c(C)nn(C)c1Cl [I-400, 5-chloro-N-(4-methoxy-[1,1′-biphenyl]-3-yl)-1,3-dimethyl-1H-pyrazole-4-sulfonamide]"
7,> 20 µM,"COc1ccc(-c2ccccc2)cc1N(C)S(=O)(=O)c1cc(Cl)cc(Cl)c1OC [I-401, 3,5-dichloro-2-methoxy-N-(4-methoxy-[1,1′-biphenyl]-3-yl)-N-methylbenzenesulfonamide]"
8,> 20 µM,"COc1ccc(-c2ccccc2)cc1NS(=O)(=O)c1cc(Cl)cc(Cl)c1OC [I-402, 3,5-dichloro-2-methoxy-N-(4-methoxy-[1,1′-biphenyl]-3-yl)benzenesulfonamide]"
9,> 20 µM,"COc1ccc(-c2ccccc2)cc1NS(=O)(=O)c1cc(Cl)cc(Cl)c1 [I-405, 3,5-dichloro-N-(4-methoxy-[1,1′-biphenyl]-3-yl)benzenesulfonamide]"
10,> 20 µM,"COc1ccc(-c2ccccc2)cc1NS(=O)(=O)c1cccc(C(=O)O)c1 [I-406, 3-(N-(4-methoxy-[1,1′-biphenyl]-3-yl)sulfamoyl)benzoic acid]"
11,> 20 µM,"COc1ccc(-c2ccccc2)cc1NS(=O)(=O)c1cc(C(=O)O)cs1 [I-408, 5-(N-(4-methoxy-[1,1′-biphenyl]-3-yl)sulfamoyl) thiophene-3-carboxylic acid]"
12,> 20 µM,"COc1ccc(-c2ccccc2)cc1NS(=O)(=O)c1ccc(C#N)cc1 [I-410, 4-cyano-N-(2-methoxy-5-phenylphenyl)benzene-1-sulfonamide]"
13,> 20 µM,"COc1ccc(-c2ccccc2)cc1NS(=O)(=O)c1cc(Cl)cc(Cl)c1N [I-414, 2-amino-3,5-dichloro-N-(2-methoxy-5-phenylphenyl) benzene-1-sulfonamide]"
14,> 20 µM,"COc1ccc(-c2ccccc2)cc1NS(=O)(=O)c1ccc(O)c(Cl)c1 [I-416, 3-chloro-4-hydroxy-N-(2-methoxy-5-phenylphenyl)benzene-1-sulfonamide]"
15,> 20 µM,"COc1ccc(-c2ccccc2)cc1N(Cc1ccccc1)S(=O)(=O)c1cn[nH]c1 [I-417, N-benzyl-N-(2-methoxy-5-phenylphenyl)-1H-pyrazole-4-sulfonamide]"
16,> 20 µM,"N#Cc1cccc(S(=O)(=O)Nc2cc(-c3ccccc3)ccc2F)c1 [I-419, 3-cyano-N-(2-fluoro-5-phenylphenyl)benzene-1-sulfonamide]"
17,> 20 µM,"O=C(COc1c(Br)cc(Cl)cc1S(=O)(=O)N(Cc1ccccc1)c1cc(-c2ccccc2)ccc1F)OCc1ccccc1 [I-420, benzyl 2-(2-(N-benzyl-N-(4-fluoro-[1,1′-biphenyl]-3-yl)sulfamoyl)-6-bromo-4-chlorophenoxy)acetate]"
18,> 20 µM,"COC(=O)c1cccc(S(=O)(=O)Nc2cc(-c3ccccc3)ccc2OC)c1 [I-421, methyl 3-(N-(4-methoxy-[1,1′-biphenyl]-3-yl)sulfamoyl)benzoate]"
